From ChEMBL document CHEMBL5726960, “Inhibiting neurotransmitter reuptake” (2018)

Columns and labels:
[1] = target: Sodium-dependent dopamine transporter (Homo sapiens, UniProt Q01959); test: On the day of the experiment, the cells were removed from −80° C. or liquid nitrogen and thawed in a room temperature water bath. The cells were dilute to about 1-2E+06 with Freestyle medium. A 1 mL sample (1:2 dilution) was prepared, and the cells were counted. The cells were spun at 1100 rpm for 5 minutes, and the medium was aspirated off. The cells were resuspend in medium at 1.5E+06 cells/mL for about 60,000 cells per well. 40 μL of cells were dispensed per well in the Biocoat plates. […] The neurotransmitter transporter dye was prepared in AB prior to use.; type: cell-based
[2] = target: Sodium-dependent noradrenaline transporter (Homo sapiens, UniProt P23975); test: On the day of the experiment, the cells were removed from −80° C. or liquid nitrogen and thawed in a room temperature water bath. The cells were dilute to about 1-2E+06 with Freestyle medium. A 1 mL sample (1:2 dilution) was prepared, and the cells were counted. The cells were spun at 1100 rpm for 5 minutes, and the medium was aspirated off. The cells were resuspend in medium at 1.5E+06 cells/mL for about 60,000 cells per well. 40 μL of cells were dispensed per well in the Biocoat plates. The plates were spun at 1100 rpm for 1 minute to improve homogeneity of the cell layer and were incubated at 37° C. for a minimum of 3 hours.; type: cell-based
Sequence of Sodium-dependent noradrenaline transporter (P23975 whole entry): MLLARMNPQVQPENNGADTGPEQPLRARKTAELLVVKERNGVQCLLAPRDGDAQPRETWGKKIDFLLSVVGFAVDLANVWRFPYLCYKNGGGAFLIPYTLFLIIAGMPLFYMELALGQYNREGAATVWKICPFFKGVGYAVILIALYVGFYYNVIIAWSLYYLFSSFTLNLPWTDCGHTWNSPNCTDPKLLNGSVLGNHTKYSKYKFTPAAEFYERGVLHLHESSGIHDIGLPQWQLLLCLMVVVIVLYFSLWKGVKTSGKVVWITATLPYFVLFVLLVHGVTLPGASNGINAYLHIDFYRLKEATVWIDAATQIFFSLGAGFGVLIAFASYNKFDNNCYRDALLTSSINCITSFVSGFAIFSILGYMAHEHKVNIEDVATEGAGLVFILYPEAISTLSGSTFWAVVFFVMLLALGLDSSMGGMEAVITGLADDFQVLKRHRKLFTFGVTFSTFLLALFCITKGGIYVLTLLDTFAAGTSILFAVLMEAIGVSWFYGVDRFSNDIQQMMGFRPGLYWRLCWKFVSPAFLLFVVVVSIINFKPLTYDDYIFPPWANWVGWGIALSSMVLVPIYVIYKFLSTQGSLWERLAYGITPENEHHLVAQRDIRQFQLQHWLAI

Sequence of Sodium-dependent dopamine transporter (Q01959 whole entry): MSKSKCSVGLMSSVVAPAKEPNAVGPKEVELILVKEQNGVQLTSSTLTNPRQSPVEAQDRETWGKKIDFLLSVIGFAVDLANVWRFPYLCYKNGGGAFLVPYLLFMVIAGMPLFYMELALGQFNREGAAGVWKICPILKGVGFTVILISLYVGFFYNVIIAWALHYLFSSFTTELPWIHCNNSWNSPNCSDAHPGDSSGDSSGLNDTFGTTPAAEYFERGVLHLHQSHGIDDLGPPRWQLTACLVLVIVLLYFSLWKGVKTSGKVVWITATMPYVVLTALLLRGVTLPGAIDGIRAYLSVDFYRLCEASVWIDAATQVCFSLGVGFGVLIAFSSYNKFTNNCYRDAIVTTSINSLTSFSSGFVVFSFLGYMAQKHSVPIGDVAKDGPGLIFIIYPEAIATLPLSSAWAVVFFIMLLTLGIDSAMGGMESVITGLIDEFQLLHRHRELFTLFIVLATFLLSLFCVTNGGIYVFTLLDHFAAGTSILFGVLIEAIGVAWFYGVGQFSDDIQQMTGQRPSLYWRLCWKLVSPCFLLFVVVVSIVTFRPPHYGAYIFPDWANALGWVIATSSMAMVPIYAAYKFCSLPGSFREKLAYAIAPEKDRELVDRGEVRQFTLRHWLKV

Ki [1]: 0.0566 µM
Ki [2]: 0.0102 µM
SMILES: CNCC(c1ccc(F)c(Cl)c1)[C@H](O)c1ccccc1 (some centres not stated)
